From ChEMBL document CHEMBL5291721, “A preclinical secondary pharmacology resource illuminates target-adverse drug reaction associations of marketed drugs” (Nat Commun, 2023)

Key:
[1] = biological target: T1, Muscarinic acetylcholine receptor M1 (Homo sapiens, UniProt P11229); assay type: functional
T1 sequence (P11229 whole entry): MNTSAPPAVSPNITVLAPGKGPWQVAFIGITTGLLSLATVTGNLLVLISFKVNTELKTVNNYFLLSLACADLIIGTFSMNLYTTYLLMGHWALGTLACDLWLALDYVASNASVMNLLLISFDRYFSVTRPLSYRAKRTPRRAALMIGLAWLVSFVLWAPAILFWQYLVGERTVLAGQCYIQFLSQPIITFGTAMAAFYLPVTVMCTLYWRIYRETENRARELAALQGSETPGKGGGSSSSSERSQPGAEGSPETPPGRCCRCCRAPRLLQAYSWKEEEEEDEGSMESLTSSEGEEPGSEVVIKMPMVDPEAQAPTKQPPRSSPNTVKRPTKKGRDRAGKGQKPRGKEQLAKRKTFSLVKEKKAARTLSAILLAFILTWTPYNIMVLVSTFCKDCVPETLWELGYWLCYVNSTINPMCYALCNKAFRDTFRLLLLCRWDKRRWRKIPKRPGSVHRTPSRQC

[2] = biological target: Gamma-aminobutyric acid receptor subunit alpha-1 (Rattus norvegicus, UniProt P62813)
[3] = biological target: T2, 5-hydroxytryptamine receptor 1A (Homo sapiens, UniProt P08908); assay type: functional, cell-based
T2 sequence (P08908 whole entry): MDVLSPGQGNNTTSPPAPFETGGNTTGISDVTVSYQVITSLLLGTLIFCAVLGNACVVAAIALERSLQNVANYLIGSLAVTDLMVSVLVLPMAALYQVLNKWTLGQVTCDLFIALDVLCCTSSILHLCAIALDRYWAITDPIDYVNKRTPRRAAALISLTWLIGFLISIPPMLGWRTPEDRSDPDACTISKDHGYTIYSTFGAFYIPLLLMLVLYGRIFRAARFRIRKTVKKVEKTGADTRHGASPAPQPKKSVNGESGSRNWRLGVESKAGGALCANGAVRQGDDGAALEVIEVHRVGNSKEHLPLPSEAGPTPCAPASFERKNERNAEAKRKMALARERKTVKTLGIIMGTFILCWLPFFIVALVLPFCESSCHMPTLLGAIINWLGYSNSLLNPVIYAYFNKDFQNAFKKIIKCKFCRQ

[4] = biological target: 5-hydroxytryptamine receptor 2B (Homo sapiens, UniProt P41595); assay type: functional, cell-based
[5] = biological target: T3, 5-hydroxytryptamine receptor 2C (Homo sapiens, UniProt P28335)
T3 sequence (P28335 whole entry): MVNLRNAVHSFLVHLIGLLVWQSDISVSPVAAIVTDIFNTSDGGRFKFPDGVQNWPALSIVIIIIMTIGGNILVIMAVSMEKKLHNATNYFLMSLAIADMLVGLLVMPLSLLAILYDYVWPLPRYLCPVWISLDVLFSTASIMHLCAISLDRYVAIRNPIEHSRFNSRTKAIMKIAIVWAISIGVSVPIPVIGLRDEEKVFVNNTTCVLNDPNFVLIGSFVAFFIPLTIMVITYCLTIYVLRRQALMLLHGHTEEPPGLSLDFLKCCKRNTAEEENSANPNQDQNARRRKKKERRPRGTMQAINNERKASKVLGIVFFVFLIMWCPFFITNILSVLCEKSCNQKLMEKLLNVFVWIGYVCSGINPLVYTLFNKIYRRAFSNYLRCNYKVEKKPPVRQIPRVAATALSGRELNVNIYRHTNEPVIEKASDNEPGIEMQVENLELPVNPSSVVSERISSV

Progesterone receptor = biological target: T4, Progesterone receptor (Homo sapiens, UniProt P06401); assay type: functional
T4 sequence (P06401 whole entry): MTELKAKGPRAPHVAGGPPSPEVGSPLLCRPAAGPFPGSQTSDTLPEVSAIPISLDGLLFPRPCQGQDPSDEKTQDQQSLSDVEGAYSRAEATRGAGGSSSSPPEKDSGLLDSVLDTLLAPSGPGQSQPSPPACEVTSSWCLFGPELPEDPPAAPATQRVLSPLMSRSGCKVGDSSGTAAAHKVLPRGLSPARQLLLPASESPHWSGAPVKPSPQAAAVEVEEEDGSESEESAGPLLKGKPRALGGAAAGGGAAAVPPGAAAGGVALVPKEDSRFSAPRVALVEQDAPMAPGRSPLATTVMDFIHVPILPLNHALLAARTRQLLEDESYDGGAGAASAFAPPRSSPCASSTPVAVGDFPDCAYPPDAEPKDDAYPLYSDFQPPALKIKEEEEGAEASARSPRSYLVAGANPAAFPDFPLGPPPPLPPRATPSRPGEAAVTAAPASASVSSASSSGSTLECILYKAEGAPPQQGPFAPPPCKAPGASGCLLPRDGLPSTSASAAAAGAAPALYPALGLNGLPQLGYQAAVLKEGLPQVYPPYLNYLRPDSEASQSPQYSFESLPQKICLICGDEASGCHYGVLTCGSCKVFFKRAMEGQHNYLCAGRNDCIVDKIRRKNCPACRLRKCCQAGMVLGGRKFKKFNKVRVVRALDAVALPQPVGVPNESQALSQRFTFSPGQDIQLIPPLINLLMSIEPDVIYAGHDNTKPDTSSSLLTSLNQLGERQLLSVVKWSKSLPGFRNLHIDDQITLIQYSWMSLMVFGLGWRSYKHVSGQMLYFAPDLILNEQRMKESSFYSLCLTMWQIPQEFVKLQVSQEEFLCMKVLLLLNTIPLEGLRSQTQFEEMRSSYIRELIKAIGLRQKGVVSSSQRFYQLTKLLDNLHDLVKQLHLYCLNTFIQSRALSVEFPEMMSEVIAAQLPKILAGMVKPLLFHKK

[6] = biological target: Sodium-dependent serotonin transporter (Homo sapiens, UniProt P31645)
[7] = biological target: T5, Alpha-1A adrenergic receptor (Homo sapiens, UniProt P35348); assay type: functional, cell-based
T5 sequence (P35348 whole entry): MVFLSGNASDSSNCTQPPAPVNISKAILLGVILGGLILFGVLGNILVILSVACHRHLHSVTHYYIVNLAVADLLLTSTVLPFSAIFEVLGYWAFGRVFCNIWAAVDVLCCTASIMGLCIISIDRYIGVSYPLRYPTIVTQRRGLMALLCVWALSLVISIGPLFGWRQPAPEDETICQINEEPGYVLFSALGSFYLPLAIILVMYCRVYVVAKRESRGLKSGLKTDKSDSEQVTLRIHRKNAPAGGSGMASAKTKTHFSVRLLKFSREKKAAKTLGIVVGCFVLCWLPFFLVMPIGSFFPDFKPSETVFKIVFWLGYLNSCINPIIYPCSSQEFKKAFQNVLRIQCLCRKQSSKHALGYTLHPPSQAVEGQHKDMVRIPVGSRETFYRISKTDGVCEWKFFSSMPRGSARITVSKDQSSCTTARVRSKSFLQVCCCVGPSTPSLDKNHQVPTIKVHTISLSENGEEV

Cannabinoid receptor 1 = Cannabinoid receptor 1 (Homo sapiens, UniProt P21554); assay type: functional, cell-based
Further: assay procedure not described here.

Chain of Sodium-dependent serotonin transporter (P31645 whole entry): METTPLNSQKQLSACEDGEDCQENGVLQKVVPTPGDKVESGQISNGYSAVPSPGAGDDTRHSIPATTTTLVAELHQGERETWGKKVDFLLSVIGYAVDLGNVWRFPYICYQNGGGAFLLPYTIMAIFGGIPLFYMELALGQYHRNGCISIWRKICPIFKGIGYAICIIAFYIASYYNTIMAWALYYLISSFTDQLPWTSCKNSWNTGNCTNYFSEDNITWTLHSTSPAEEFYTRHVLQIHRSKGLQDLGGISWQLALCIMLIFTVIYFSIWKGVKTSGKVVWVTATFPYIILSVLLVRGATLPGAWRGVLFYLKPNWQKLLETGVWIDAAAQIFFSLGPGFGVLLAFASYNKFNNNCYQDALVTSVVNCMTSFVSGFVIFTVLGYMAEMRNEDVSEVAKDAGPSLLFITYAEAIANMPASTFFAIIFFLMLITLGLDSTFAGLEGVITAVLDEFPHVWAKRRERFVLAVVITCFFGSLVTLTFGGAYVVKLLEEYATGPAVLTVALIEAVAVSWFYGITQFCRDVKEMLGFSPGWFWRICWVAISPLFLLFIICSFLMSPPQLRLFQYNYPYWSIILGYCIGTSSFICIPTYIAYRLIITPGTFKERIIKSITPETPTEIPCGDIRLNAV
Chain of 5-hydroxytryptamine receptor 2B (P41595 whole entry): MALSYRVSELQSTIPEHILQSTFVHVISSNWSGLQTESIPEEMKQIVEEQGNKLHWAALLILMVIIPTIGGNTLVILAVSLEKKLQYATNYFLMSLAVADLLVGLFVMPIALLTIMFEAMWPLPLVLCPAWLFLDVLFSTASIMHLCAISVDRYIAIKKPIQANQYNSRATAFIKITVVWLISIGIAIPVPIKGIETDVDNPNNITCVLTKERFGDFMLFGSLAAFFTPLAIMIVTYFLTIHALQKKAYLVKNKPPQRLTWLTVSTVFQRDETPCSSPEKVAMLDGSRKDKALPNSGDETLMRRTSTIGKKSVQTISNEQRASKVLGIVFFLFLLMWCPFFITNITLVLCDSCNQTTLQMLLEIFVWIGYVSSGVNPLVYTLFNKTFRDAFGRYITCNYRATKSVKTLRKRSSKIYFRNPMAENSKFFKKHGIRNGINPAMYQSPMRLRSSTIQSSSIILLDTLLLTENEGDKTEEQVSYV
Chain of Gamma-aminobutyric acid receptor subunit alpha-1 (P62813 whole entry): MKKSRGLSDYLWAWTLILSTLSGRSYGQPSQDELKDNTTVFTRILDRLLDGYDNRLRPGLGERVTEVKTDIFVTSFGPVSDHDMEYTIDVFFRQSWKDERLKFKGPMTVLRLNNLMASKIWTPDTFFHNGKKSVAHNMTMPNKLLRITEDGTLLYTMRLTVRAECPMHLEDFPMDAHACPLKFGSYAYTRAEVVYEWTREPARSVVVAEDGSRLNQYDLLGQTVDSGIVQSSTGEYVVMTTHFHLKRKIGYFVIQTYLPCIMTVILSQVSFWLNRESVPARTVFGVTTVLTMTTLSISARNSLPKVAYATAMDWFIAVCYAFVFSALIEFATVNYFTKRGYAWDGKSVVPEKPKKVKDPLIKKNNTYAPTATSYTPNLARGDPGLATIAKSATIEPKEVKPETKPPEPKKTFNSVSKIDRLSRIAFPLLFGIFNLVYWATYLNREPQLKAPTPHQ
Chain of Cannabinoid receptor 1 (P21554 whole entry): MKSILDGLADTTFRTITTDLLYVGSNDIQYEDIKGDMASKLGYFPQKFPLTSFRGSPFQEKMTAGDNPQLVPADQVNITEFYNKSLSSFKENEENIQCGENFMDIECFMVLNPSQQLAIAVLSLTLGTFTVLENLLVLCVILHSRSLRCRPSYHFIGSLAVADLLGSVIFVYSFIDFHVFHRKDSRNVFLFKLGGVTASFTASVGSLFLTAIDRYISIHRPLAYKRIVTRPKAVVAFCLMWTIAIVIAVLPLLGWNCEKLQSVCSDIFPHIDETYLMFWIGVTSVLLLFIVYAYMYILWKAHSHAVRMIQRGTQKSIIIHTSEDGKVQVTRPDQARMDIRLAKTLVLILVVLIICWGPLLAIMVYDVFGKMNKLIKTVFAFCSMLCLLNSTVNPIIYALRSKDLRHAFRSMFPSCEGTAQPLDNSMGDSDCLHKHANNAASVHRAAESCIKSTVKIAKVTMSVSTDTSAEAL

SMILES | AC50 [1] [µM] | AC50 [2] [µM] | AC50 [3] [µM] | AC50 [4] [µM] | AC50 [5] [µM] | AC50 (Progesterone receptor) [µM] | AC50 [6] [µM] | AC50 [7] [µM] | AC50 (Cannabinoid receptor 1) [µM]
NS(=O)(=O)c1cc2c(cc1C(F)(F)F)NC(Cc1ccccc1)NS2(=O)=O (stereo unspecified) [BENDROFLUMETHIAZIDE] | > 10 | > 10 | > 10 | > 10 | > 30 | > 10 | > 30 |  | 
CCCC(C)(COC(N)=O)COC(=O)NC(C)C (stereo unspecified) [CARISOPRODOL] | > 10 | > 10 | > 10 | > 10 | > 30 |  | > 10 | > 30 | > 30
N[C@H](Cc1cc(I)c(Oc2cc(I)c(O)c(I)c2)c(I)c1)C(=O)O [DEXTROTHYROXINE] | > 10 | > 10 | > 10 | 26 | > 30 |  | > 30 | > 30 | > 30
C[C@@H]1C[C@H]2[C@@H]3C[C@H](F)C4=CC(=O)C=C[C@]4(C)[C@@]3(F)[C@@H](O)C[C@]2(C)[C@H]1C(=O)CO [DIFLUCORTOLONE] | > 30 |  |  | 18 |  | 0.052 | > 30 |  | 
COC(=O)N[C@@H](C)CNc1nccc(-c2cn(C(C)C)nc2-c2cc(Cl)cc(NS(C)(=O)=O)c2F)n1 [ENCORAFENIB] | > 30 | > 30 | > 30 | 28 | > 30 | > 30 | > 30 |  | 
Clc1ccc2c(c1)C(c1ccccc1)=NCc1nncn1-2 [ESTAZOLAM] | > 10 | > 10 | > 10 | > 10 | > 30 |  | > 30 | > 30 | > 30
Clc1ccc(C(Cn2ccnc2)OCc2ccc(Sc3ccccc3)cc2)c(Cl)c1 (stereo unspecified) [FENTICONAZOLE] | > 30 |  | > 30 | > 30 | > 30 | > 30 |  | > 30 | > 30
Nc1nc(F)nc2c1ncn2[C@@H]1O[C@H](COP(=O)(O)O)[C@@H](O)[C@@H]1O [FLUDARABINE PHOSPHATE] | > 30 | > 30 | > 30 | > 30 | > 30 | > 30 | > 30 | > 30 | 
O=C(O)c1ccccc1Nc1cccc(C(F)(F)F)c1 [FLUFENAMIC ACID] | 0.54 | > 10 | > 30 | > 30 | 4.6 |  | > 30 | > 30 | > 30
CC#CCn1c(N2CCC[C@@H](N)C2)nc2c1c(=O)n(Cc1nc(C)c3ccccc3n1)c(=O)n2C [LINAGLIPTIN] | > 10 | > 10 |  | > 10 | > 30 |  | > 30 |  | 
O=C1CN=C(c2ccccc2)c2cc(Cl)ccc2N1 [NORDAZEPAM] | > 10 | > 10 | > 10 | > 10 | > 30 |  | > 10 | > 30 | > 30
CC(CCc1ccccc1)NC(C)C(O)c1ccc(O)cc1 (stereo unspecified) [NYLIDRIN] | > 10 | > 10 | > 10 | 6.9 | > 30 |  | > 10 |  | > 30
O=C1Nc2ccc(Cl)cc2C(c2ccccc2)=NC1O (stereo unspecified) [OXAZEPAM] | > 10 | > 10 | > 10 | > 10 | > 30 |  | > 10 | > 30 | > 30
CC(=O)O[C@H]1C[C@@H]2CC[C@@H]3[C@H](CC[C@@]4(C)[C@H]3C[C@H]([N+]3(C)CCCCC3)[C@@H]4OC(C)=O)[C@@]2(C)C[C@@H]1[N+]1(C)CCCCC1 [PANCURONIUM] | > 10 | > 10 | > 10 | > 10 | > 30 | > 10 | > 10 |  | 
CC1(C)C(C=C(Cl)Cl)C1C(=O)OCc1cccc(Oc2ccccc2)c1 (stereo unspecified) [PERMETHRIN] | > 10 | > 10 | > 10 | > 10 | > 30 | > 30 | > 10 |  | 
Cc1cc2nc3c(=O)[nH]c(=O)nc-3n(C[C@H](O)[C@H](O)[C@H](O)COP(=O)(O)O)c2cc1C [RIBOFLAVIN 5'-PHOSPHATE] | > 30 | > 30 |  |  | 24 | > 30 | > 30 | 12 | 
CC(NCCc1ccc(O)cc1)C(O)c1ccc(O)cc1 (stereo unspecified) [RITODRINE] | > 30 | > 30 | > 30 | > 30 | > 30 | > 30 | 16.3 | > 30 | 
CN1c2ccccc2C(NCCCCCCC(=O)O)c2ccc(Cl)cc2S1(=O)=O (stereo unspecified) [TIANEPTINE] | > 30 | > 30 | > 30 | > 30 | > 30 | > 30 |  | > 30 | > 30
N#C[C@@H]1CCCN1C(=O)CNC12CC3CC(CC(O)(C3)C1)C2 [VILDAGLIPTIN] | > 30 | > 30 | > 30 | > 30 | > 30 |  | > 30 | > 30 | 
